Several values for one entry are separate records, joined by “and”; a condition that tells them apart may be missing. Equal entries are not always repeated. ± gives the expanded uncertainty stated by the source.

For this data set the following is noted: 101 kPa, Liquid; for viscosity: Capillary tube (Ostwald / Ubbelohde) method; for mass density: Vibrating tube method.

In general, viscosity refers to the resistance of a fluid to flow. As a reminder, the mass density is the mass of a sample divided by its volume. Turning to `COC(=O)CCCCl` [methyl 4-chlorobutanoate], the viscosity came to 1.519 ± 0.01 mPa·s (298.15 K), 1.279 ± 0.009 mPa·s (308.15 K) and 1.089 ± 0.009 mPa·s (318.15 K). Moreover, the mass density (298.15 K) was found to be 1116.24 ± 0.13 kg/m3; the mass density (308.15 K) was 1105.22 ± 0.13 kg/m3 and 1105.23 ± 0.13 kg/m3; the mass density (318.15 K) turned out to be 1094.13 ± 0.12 kg/m3.

On to `c1ccccc1` [benzene], for which the viscosity reads like this: (298.15 K) 0.603 ± 0.007 mPa·s; (308.15 K) 0.533 ± 0.007 mPa·s; (318.15 K) 0.466 ± 0.007 mPa·s. Further, the mass density was determined as 873.61 ± 0.15 kg/m3 (298.15 K), 862.28 ± 0.15 kg/m3 (308.15 K) and 852.08 ± 0.15 kg/m3 (318.15 K).

As to `Cc1ccccc1` [toluene], the mass density by setting is: (298.15 K) 862.18 ± 0.19 kg/m3; (308.15 K) 852.81 ± 0.19 kg/m3; (318.15 K) 843.4 ± 0.19 kg/m3. Also, the viscosity runs as follows: (308.15 K) 0.499 ± 0.007 mPa·s; (318.15 K) 0.446 ± 0.007 mPa·s.

With `Cc1ccc(C)cc1` [1,4-dimethylbenzene], the viscosity (298.15 K) was determined as 0.609 ± 0.007 mPa·s, the viscosity (308.15 K) turned out to be 0.541 ± 0.007 mPa·s and the viscosity (318.15 K) amounted to 0.484 ± 0.007 mPa·s. For the same compound, the mass density runs as follows: (298.15 K) 856.68 ± 0.14 kg/m3; (308.15 K) 847.96 ± 0.14 kg/m3; (318.15 K) 839.2 ± 0.15 kg/m3.

Consider `Cc1ccccc1C` [1,2-dimethylbenzene], for which the viscosity came out at 0.758 ± 0.008 mPa·s (298.15 K), 0.665 ± 0.007 mPa·s (308.15 K) and 0.589 ± 0.007 mPa·s (318.15 K). The mass density was 875.08 ± 0.15 kg/m3 (298.15 K), 866.62 ± 0.15 kg/m3 (308.15 K) and 858.12 ± 0.15 kg/m3 (318.15 K).

(Values after the NIST ThermoML archive (doi:10.1021/je900194v).)
